Experiments:
Factor XIa = Factor XIa (Homo sapiens, UniProt P03951); assay: Factor XIa inhibition assay using fluorophore-quencher pair peptide substrate; type: biochemical
Text: Biological Example 1: Factor XIa Inhibition Assay
Using Fluorophore-quencher Pair Peptide Substrate
A fluorescence intensity-based assay was used to monitor inhibition of Factor XIa. The peptide substrate, 5Fam-[…]-K5Tamra (purchased from New England Peptide) was chosen based on the […]. Conversion of zymogen FIX to its activated form, FIXa, occurs by proteolytic cleavage by FXIa at two sites, Arg146 and Arg180. The custom peptide used in this assay was based on the Arg146 cleavage site. The peptide substrate was designed with a fluorophore-quencher pair, where the fluorescence is quenched until FXIa cleaves the 8-mer peptide after the Arg residue.
Factor XIa FLINT assay was used with the following 5Fam-[…]-K5Tamra assay buffer: 50 mM Tris, pH 7.5, 100 mM NaCl, 5 mM CaCl2, 0.1 mg/mL BSA, 0.03% CHAPS was used. Assay buffer was prepared by mixing all ingredients fresh. 2×5Fam-[…]-K5Tamra peptide substrate was first prepared in 100% DMSO, then diluted 10 mM to 3 mM in 100% DMSO. Assay buffer was then added directly to the 3 mM stock of substrate to prepare the 30 μM 2× working concentration (15 μM final concentration). The 2× Factor XIa stock solution was prepared by diluting 6.562 μM stock in 1× assay buffer for a 200 pM working stock solution (100 pM final concentration).
Test compound(s) were run in an 11-point, 3-fold serial dilution with a final top compound concentration of […]. Final DMSO in assay was 2% DMSO. FXIa and compound were pre-incubated for 30 minutes and substrate was then added to initiate the reaction. The assay was linear using 100 pM FXIa greater than 30 minutes. More specifically, the assay was run as follows: • 100 nL of 1 mM test compound was dispensed into a black 384-well non-binding Greiner BioOne 784900 plate for 10 μM final concentration with 1% DMSO final concentration; • 5 μL of 1× assay buffer was dispensed to column 24 (low control) and 5 μL 2× Factor XIa solution was dispensed to columns 1-23 (column 23 high control); • the plate was centrifuged with a “cover” plate at 500 rpm for 1 min • the plate was pre-incubated for 30 minutes at room temperature with plate covered; • 5 μL of 2× 5Fam-[…]-K5Tamra peptide substrate was dispensed into the entire plate, columns 1-24; • the plate was centrifuged with a cover plate at 500 rpm for 1 min; • the plate was read kinetically monitoring fluorescence intensity on the BMG PHERAStar at room temperature, using fluorescence module F1 485 mm/520 mm.
(§1) Percent inhibition (IC50) curves were generated per compound tested, and data was analyzed using a 4-parameter logistic fit using GeneData Screener. […]

human plasma kallikrein = human plasma kallikrein (Homo sapiens, UniProt P03952); assay: Kallikrein inhibition assay utilizing quenched AMC peptide substrate; type: biochemical; conditions: read-out: Plasma kallikrein (PK) IC50
Chain of human plasma kallikrein (P03952 391-638 limits assumed): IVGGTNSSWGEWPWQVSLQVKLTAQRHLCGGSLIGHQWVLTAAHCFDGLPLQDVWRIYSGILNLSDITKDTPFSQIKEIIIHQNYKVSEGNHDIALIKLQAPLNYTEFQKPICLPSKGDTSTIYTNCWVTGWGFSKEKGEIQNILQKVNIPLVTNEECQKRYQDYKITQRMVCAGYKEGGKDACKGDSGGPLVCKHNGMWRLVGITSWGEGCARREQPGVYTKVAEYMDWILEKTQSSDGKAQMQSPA
Chain of human plasma kallikrein (P03952 20-390 partner limits assumed): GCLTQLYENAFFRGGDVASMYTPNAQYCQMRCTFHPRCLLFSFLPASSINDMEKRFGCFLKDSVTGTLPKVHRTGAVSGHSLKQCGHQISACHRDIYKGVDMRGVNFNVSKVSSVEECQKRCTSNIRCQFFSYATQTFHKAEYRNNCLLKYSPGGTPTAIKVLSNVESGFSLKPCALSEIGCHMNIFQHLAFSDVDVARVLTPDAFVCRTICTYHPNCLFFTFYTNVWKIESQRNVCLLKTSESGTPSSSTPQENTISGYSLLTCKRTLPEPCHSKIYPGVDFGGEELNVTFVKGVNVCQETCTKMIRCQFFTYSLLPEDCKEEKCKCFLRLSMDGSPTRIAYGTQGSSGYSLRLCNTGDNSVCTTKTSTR
Description: Biological Example 2: Kallikrein Inhibition Assay
Utilizing Quenched AMC Peptide Substrate
A fluorescence intensity-based assay was used to monitor inhibition of human plasma kallikrein. The peptide substrate, Z-Gly-Pro-Arg-AMC (Purchased from Bachem; Catalog #1-1150) was chosen based on its relatively low KM for kallikrein which enables running the assay at lower substrate concentrations to control background fluorescence. The kinetic parameters for this substrate were determined by fitting titration data to the Michaelis-Menten equation yielding a KM=40 μM, kcat=0.76 s^−1, and kcat/KM=18932 M^−1s^−1.
Kallikrein FLINT assay was used with the following Z-Gly-Pro-Arg-AMC assay buffer: 50 mM Tris, pH 7.5, 100 mM NaCl, 5 mM CaCl2, 0.1 mg/mL BSA, 0.03% CHAPS. Assay buffer was prepared by mixing all ingredients fresh. 2× Z-Gly-Pro-Arg-AMC peptide substrate was prepared by diluting 10 mM stock into 1× assay buffer for a 100 μM working concentration (50 μM final concentration). The 2× kallikrein stock solution was prepared by diluting 14.76 μM stock in 1× assay buffer for a 4 nM working stock solution (2 nM final concentration).
Test compound(s) were run in an 11-point, 3-fold serial dilution with a final top compound concentration of 1 μM. Final DMSO in assay: 2% DMSO. 2 nM kallikrein and test compound were pre-incubated for 30 minutes and 50 μM substrate was then added to initiate the reaction. The assay was linear using 2 nM kallikrein greater than 30 minutes. More specifically, the assay was run as follows: • 100 nL of 1 mM test compound was dispensed into a black 384-well non-binding Greiner BioOne 784900 plate for 10 μM final concentration with 1% DMSO final concentration; • 5 μL of 1× assay buffer was dispensed to columns 24 (low control) and 5 μL 2× human kallikrein enzyme solution was dispensed to columns 1-23 (column 23 high control); • the plate was centrifuged with a cover plate at 500 rpm for 1 min • the plate was pre-incubated for 30 minutes at room temperature with plate covered; • 5 μL of 2× Z-Gly-Pro-Arg-AMC peptide substrate was dispensed into the entire plate, columns 1-24; • the plate was centrifuged with a “cover” plate at 500 rpm for 1 min; • the plate was read kinetically monitoring fluorescence intensity on the BMG PHERAStar at room temperature, using fluorescence module F1 340 mm/440 mm.
as §1

human hepatocytes = assay: In vitro metabolism in human cryopreserved hepatocytes; type: in vitro ADME; conditions: positive control, 10 μM, 1×10^6 cells/mL, 3 hours
Description: In Vitro Metabolism of in Human Cryopreserved Hepatocytes
The human hepatocytes used for in vitro metabolism of the compound of formula (I-A) were purchased from Bioreclamation IVT (Westbury, NY); cryopreserved human hepatocytes (lot number: UYG).
Cryopreserved hepatocytes were rapidly thawed […] vials were placed in a 37° C. water bath for approximately 90 sec, then immediately added to pre-warmed hepatocyte thawing media. The cells were resuspended within the media and then centrifuged at 700×g for 7 minutes at room temperature.
The supernatant was discarded, and the cells were resuspended in 2 mL of Krebs-Henseleit buffer containing 12.5 mM HEPES pH 7.4 (KHB). Cell viability and yield were determined by Trypan Blue exclusion. The hepatocytes were then diluted in KHB to a cell concentration of 2×10^6 cells/mL (500 μL/well in 10 mL glass tubes). The tubes were placed on a rotary shaker in a humidifier incubator supplied with 5% CO2 and allowed 15 minutes acclimation at 37° C. prior to use. The compound of formula (I-A) or positive control, diclofenac (10 μM), in KHB was then added to the hepatocytes to achieve a final concentration of 10 μM and cell concentration of 1×10^6 cells/mL (1000 μL final incubation volume). Cells were incubated for zero or 3 hours. At the end of the incubation period, the cells were quenched with 6-volumes of ice-cold acetonitrile containing 0.02% formic acid, vortexed and sonicated (5 min). Precipitated proteins were pelleted by centrifugation (3000 rpm, 10 minutes, 4° C.) and the supernatant was transferred to borosilicate tubes and evaporated to dryness under a gentle stream of nitrogen.
The resulting residue after evaporation was reconstituted in 250 μL of water:acetonitrile (9:1 v/v) containing 0.01% formic acid with sonication and vortexing to aid solubilization of drug-derived materials prior to filtration using 0.45μ nylon filter at 10,000×g at room temperature for 10 minutes. The filtrate was transferred to a 96-well plate for liquid chromatography/ultraviolet/mass spectrometry (LC-UV/MS) analysis.
LC/UV/MS (Liquid Chromatography/Ultraviolet/Mass Spectrometry)
LTQ/Orbitrap (Thermo Scientific, Inc., Bremen, Germany) was carried out by data-dependent accurate mass measurements at resolving powers of 15,000 for full scan MS and 7,500 for MS^2 (also known as MS/MS or tandem mass spec) under single ion locked mass mode.
Quantification of the unchanged drug and its metabolites was carried out by integration of the individual chromatographically separated UV peaks and provided the percentage of total peak area.

Chain of Factor XIa (P03951 388-625 limits assumed): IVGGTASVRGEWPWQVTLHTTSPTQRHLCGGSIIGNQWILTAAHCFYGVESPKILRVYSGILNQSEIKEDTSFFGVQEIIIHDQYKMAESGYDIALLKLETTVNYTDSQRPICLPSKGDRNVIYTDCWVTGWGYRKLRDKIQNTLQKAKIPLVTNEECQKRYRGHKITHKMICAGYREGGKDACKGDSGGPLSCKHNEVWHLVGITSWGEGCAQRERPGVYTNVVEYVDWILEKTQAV
Chain of Factor XIa (P03951 19-387 partner limits assumed): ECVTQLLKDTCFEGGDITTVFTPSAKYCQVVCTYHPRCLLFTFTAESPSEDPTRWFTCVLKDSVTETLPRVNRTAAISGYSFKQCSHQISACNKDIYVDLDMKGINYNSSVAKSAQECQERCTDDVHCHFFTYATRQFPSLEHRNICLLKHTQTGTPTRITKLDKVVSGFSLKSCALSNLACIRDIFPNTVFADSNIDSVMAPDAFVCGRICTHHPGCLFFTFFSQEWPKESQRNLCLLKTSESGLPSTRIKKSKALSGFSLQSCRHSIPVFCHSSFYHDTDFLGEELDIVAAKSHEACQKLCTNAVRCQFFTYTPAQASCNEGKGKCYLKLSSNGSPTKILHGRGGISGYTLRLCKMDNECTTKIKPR

Structure (SMILES) | IC50 (Factor XIa) | IC50 (human plasma kallikrein) | turnover from human hepatocytes (human hepatocytes)
[2H]c1nnnn1-c1ccc(Cl)c(F)c1C1=CC(=O)N2[C@@H](CC[C@@H]2c2ncc(-c3ccnc(C([2H])([2H])O)c3F)[nH]2)C1 (stereo in doubt) [Compound of formula (I-J), (3R,8aS)-7-(3-Chloro-2-fluoro-6-(1H-tetrazol-1-yl-d)phenyl)-3-(4-(3-fluoro-2-(hydroxymethyl-d2)pyridin-4-yl)-1H-imidazol-2-yl)-2,3,8,8a-tetrahydroindolizin-5(1H)-one] | 4.1 nM | 32 nM | 
O=C(O)Cc1ccccc1Nc1c(Cl)cccc1Cl [diclofenac, reference compound] |  |  | 89%
[2H]C1([2H])C[C@@H](c2ncc(-c3ccnc(CO)c3F)[nH]2)N2C(=O)C=C(c3c(-n4cnnn4)ccc(Cl)c3F)C([2H])([2H])[C@]21[2H] (single isomer, unassigned) [Compound of formula (I-G)] | 3.9 nM |  | 
[2H]C1([2H])C(c2c(-n3cnnn3)ccc(Cl)c2F)=CC(=O)N2[C@H](c3ncc(-c4ccnc(CO)c4F)[nH]3)CC[C@@]21[2H] (single isomer, unassigned) [Compound of formula (I-K)] |  | 9.7 nM | 
[2H]C([2H])(O)c1nccc(-c2cnc([C@@H]3CCC4([2H])CC(c5c(-n6cnnn6)ccc(Cl)c5F)=CC(=O)N34)[nH]2)c1F (single isomer, unassigned) [Compound of formula (I-F), (3S,8aR*)-7-(3-Chloro-2-fluoro-6-(1H-tetrazol-1-yl)phenyl)-3-(5-(3-fluoro-2-(hydroxymethyl-d2)pyridin-4-yl)-1H-imidazol-2-yl)-2,3,8,8a-tetrahydroindolizin-5(1H)-one-8a-d] | 5.1 nM | 34 nM | 

— patent publication US12545677B2, “Compounds useful as factor XIa inhibitors” (JANSSEN PHARMACEUTICA NV, priority 2020, dated 2026)
